{"source": "patent US20250223618A1", "about": "“METHOD FOR PRODUCING MULTI-HYDROXY DERIVATIVES OF POLYUNSATURATED FATTY ACIDS” (KOREA RESEARCH INSTITUTE OF BIOSCIENCE AND BIOTECHNOLOGY, priority 2018, published 2025)", "molecules": {"B1": {"name": "Protein having amino acid sequence of SEQ ID NO: 1: enzyme for producing a di-hydroxy derivative of polyunsaturated fatty acids, about 65 KDa, expressed in E. coli (protein)", "chain": "MVDNMKPSLPQDDPNQEQRKDSLNRQQQAYQFDYESLSPLALLKNVPAVENFSSKYIGERILATSELPANMLAADSRTFLDPLDELQDYEDFFTLLPLPAVAKIYQTDRSFAEQRLSGANPMVLRLLDAGDPRAQTLAQISSFHPLFDLGQELQQKNIYVADYTGTDEHYRAPSKIGGGSYEKGRKFLPKPRAFFAWRWTGIRDRGEMTPIAIQLDPTPDSHVYTPFDPPVDWLFAKLCVQVADANHHEMSSHLGRTHLVMEPIAIVTARQLAQNHPLSLLLKPHFRFMLTNNELGRSYLIAPGGPVDELLGGTLPETMEIAREACSTWSLDEFALPAELKNRGMDDTNQLPHYPYRDDGLLLWDAIETFVSGYLKFFYPTEIAIVQDVELQTWAQELASDRGGKVKGMPPRINTVEQLIKIVTTIIFTCGPQHSAVNFPQYEYMSFAANMPLAAYRDIPKITASGNLEVITEKDILRLLPPYKRAADQLKILFTLSAYRYDRLGYYDKSFRELYRMSFDEVFAGTPIQLLARQFQQNLNMAEQKIDANNQKRVIPYIALKPSLVINSISM", "modifications": "K9V_A296G", "notes": "enzyme for producing a di-hydroxy derivative of polyunsaturated fatty acids, about 65 KDa, expressed in E. coli"}, "B2": {"name": "Protein having amino acid sequence of SEQ ID NO: 2: enzyme for producing a tri-hydroxy or tetra-hydroxy derivative of polyunsaturated fatty acids, about 65 KDa, expressed in E. coli (protein)", "chain": "B1 chain with G296A", "modifications": "enzyme (K9V)", "notes": "enzyme for producing a tri-hydroxy or tetra-hydroxy derivative of polyunsaturated fatty acids, about 65 KDa, expressed in E. coli"}}, "key": {"[1]": {"system": "human breast cancer cells MDA-MB-231", "assay": "Proliferation of human breast cancer cells", "format": "cell-based", "conditions": "same concentration as in mammospheres (0 to 60 μM), FIG. 10A", "procedure": "(§1) The purified derivatives were treated to human beast cancer cells and human beast cancer-derived cancer stem cells and then the effects thereof were confirmed.\nMore specifically, first, human breast cancer cells MDA-MB-231 (ATCC) were incubated at a density of 1×10^6 cells in a 10 cm culture dish with a DMEM medium added with 10% fetal bovine serum (FBS, Hyclone), 100 U/ml penicillin, and 100 μg/ml of streptomycin (carbon dioxide 5%, 37° C.)."}, "[2]": {"system": "mammospheres of the human beast cancer-derived cancer stem cells", "assay": "Proliferation of mammospheres of breast cancer-derived cancer stem cells", "format": "cell-based", "conditions": "treated at the concentration of 0 to 60 μM; FIG. 10A/10B", "procedure": "as §1\nThe human breast cancer cells MDA-MB-231 were incubated at a density of 0.5 to 1×10^4 cells in a ultra-low attachment 6-well plate containing 2 ml of a Complete MammoCult™ medium (StemCell Technologies, Canada) added with 4 μg/ml of heparin, 0.48 μg/ml of hydrocortisone, 100 U/ml of penicillin, and 100 μg/ml of streptomycin (carbon dioxide 5%, 37° C.) to form mammospheres of the human beast cancer-derived cancer stem cells."}, "[3]": {"biological_target": "T1, Protein having amino acid sequence of SEQ ID NO: 2 (protein K9V; enzyme for producing tri-hydroxy or tetra-hydroxy derivative of polyunsaturated fatty acids) (Phormidium nigroviride, UniProt K9VMV7)", "T1 construct": "Ni-NTA purified", "T1 sequence (K9VMV7 1-571)": "B1 chain with G296A", "assay": "Reaction rate (Km, Kcat) under optimal conditions, protein of SEQ ID NO: 2", "format": "biochemical", "conditions": "pH 7.0, 30° C.", "description": "Under optimal conditions confirmed in [4-1] and [4-2] above, Km and Kcat values of the protein having the amino acid sequence of SEQ ID NO: 1 and the protein having the amino acid sequence of SEQ ID NO: 2 were examined."}, "[4]": {"biological_target": "Protein having amino acid sequence of SEQ ID NO: 1 (protein K9V_A296G; enzyme for producing di-hydroxy derivative of polyunsaturated fatty acids) (Phormidium nigroviride, UniProt K9VMV7, A296G)", "conditions": "pH 8.0, 20° C.", "procedure": "At this time, 50 mM of a sodium phosphate buffer in the case of pH 7.0, 50 mM of a Tris-HCl buffer in the case of pH 8.0, and 50 mM of a sodium borate buffer in the case of pH 9.0 to pH 11.0 were used, respectively."}, "[5]": {"assay": "Effect of pH on enzyme activity (13S-hydroxy-octadecadienoic acid formed)", "format": "biochemical", "conditions": "10 KU/ml protein, 100 μM linoleic acid, 30 minutes", "procedure": "(§2) In the same manner as in Example [3-1], the concentration of 13S-hydroxy-octadecadienoic acid in the reaction product was measured, and relative values thereof were compared with each other."}, "[6]": {"assay": "Effect of temperature on enzyme activity (13S-hydroxy-octadecadienoic acid formed)", "format": "biochemical", "conditions": "100 μM linoleic acid, pH 7, 20° C. to 50° C., 30 minutes", "procedure": "as §2"}}, "note": "Changes are numbered by the printed parent chain. Names and notes keep the numbering of the source.", "data": [{"molecule": "CCC(O)/C=C/C=C/C=C/C(O)C/C=C/C/C=C/C/C=C/CCC(=O)O", "note": "(stereo not shown) [di-hydroxy derivative]", "values": [{"measurement": "proliferation of the breast cancer cells", "setting": "[1]", "value": "no effect"}, {"measurement": "proliferation of the mammospheres of the beast cancer-derived cancer stem cells", "setting": "[2]", "value": "inhibited"}]}, {"molecule": "CCCCC/C=C\\C/C=C\\CCCCCCCC(=O)O", "note": "[linoleic acid]", "values": [{"measurement": "Kcat", "setting": "[3]", "value": "0.0067 ± 0.00033", "unit": "s⁻¹"}, {"measurement": "Km", "setting": "[3]", "value": "79.4 ± 0.8", "unit": "µM"}, {"measurement": "Kcat", "setting": "[4]", "value": "0.392 ± 0.0167", "unit": "s⁻¹"}, {"measurement": "Km", "setting": "[4]", "value": "46.8 ± 1", "unit": "µM"}]}, {"molecule": "B1", "values": [{"measurement": "pH of better (optimal) enzyme activity", "setting": "[5]; pH 7 to pH 11, 25° C., FIG. 8A", "value": "~8.0"}, {"measurement": "temperature of better (optimal) enzyme activity", "setting": "[6]; 50 KU/ml protein, FIG. 9A", "value": "~20", "unit": "°C"}]}, {"molecule": "B2", "values": [{"measurement": "pH of better (optimal) enzyme activity", "setting": "[5]; pH 6 to pH 11, 25° C., FIG. 8B", "value": "~8.0"}, {"measurement": "temperature of better (optimal) enzyme activity", "setting": "[6]; 10 KU/ml protein, FIG. 9B", "value": "~30", "unit": "°C"}]}]}
